In patent US20230295215A1, “NOVEL MRNA 5'-END CAP ANALOGS MODIFIED WITHIN PHOSPHATE RESIDUES, RNA MOLECULE INCORPORATING THE SAME, USES THEREOF AND METHOD OF SYNTHESIZING RNA MOLECULE OR PEPTIDE” (Uniwersytet Warszawski, priority 2020, published 2023):

Experiments:
[1] = cited from earlier work; for translation efficiency: relative to the compound without modification
[2] = tested on: 3T3-L1 and JAWS II cells; experiment: Gaussia luciferase protein expression from capped mRNA transfected into mammalian cells; assay type: cell-based, murine; conditions: mRNAs modified with the two trinucleotide cap analogs compared with each other
Description: Transcripts incorporating at the 5′ end compounds according to the invention or benchmark (reference) compounds were obtained using in vitro transcription method in the presence of RNA polymerase T7 and DNA template containing the […] promoter sequence for this polymerase. In order to analyze the capping efficiency, short RNA transcripts were obtained as described in Example 9. The transcription yielding RNAs of 35 nt in length was carried out in the presence of selected compounds according to the invention or reference compounds representing state of the art and containing the same modifications of phosphate groups as the analyzed compounds according to the invention. The resulting RNAs were treated with DNAzyme 10-23 in order to shorten them and reduce 3′ end heterogeneity and analyzed in 15% polyacrylamide gel, which enabled separation of capped and uncapped RNAs. In order to analyze protein expression yield in mammalian cells, mRNAs carrying compounds according to the invention or reference compounds and encoding Gaussia luciferase as a reporter gene were obtained. […] The obtained mRNAs were introduced into mammalian cell lines (fibroblasts—3T3-L1 and dendritic cells—JAWS II) using transfection with lipofectamine, followed by measuring Gaussia luciferase expression in the extracellular medium at appropriate time intervals by the luminescence method as described in Example 13. […]

Question: For `COC1C(O)C(COP(=O)(O)OP(=O)(S)OP(=O)(O)OCC2OC(n3cnc4c(=O)[nH]c(N)nc43)C(O)C2O)OC1n1c[n+](C)c2c(=O)[nH]c(N)nc21` (centres unmarked) [m2^7,2′-OGppspG D2], which translation efficiency [1] is on record?
Answer: increases

Question: For `CO[C@@H]1[C@H](O)[C@@H](COP(=O)(O)OP(=O)([S-])OP(=O)(O)OC[C@H]2O[C@@H](n3cnc4c(=O)[nH]c(N)nc43)[C@H](O)[C@@H]2O)O[C@H]1n1c[n+](C)c2c(O)nc(N)nc21` (stereo partly drawn) [β-S-ARCA], which “translation efficiency of mRNA” value ([1]; in vitro and in vivo) is on record?
Answer: significant increase in translation efficiency

Question: What does the source list for m2^7,3′-OGppCH2pG?
Answer: protein expression ([1]; compared to mRNA obtained with m2^7,3′-OGpppG (no O by CH2 substitution)): significant reduction in protein expression; translation efficiency [1]: decreases

Question: With m^7GppCH2pAmpG as the molecule, how does the translational properties [2] read?
Answer: very similar translational properties
